{"source": "patent US20180303878A1", "about": "“TREATMENT FOR INFECTION COMPOSED OF MENSTRUAL STEM CELLS” (CELLS FOR CELLS, S.P.A., priority 2015, published 2018)", "type_in_all_cases": "in vivo, C57BL6/j mice", "key": {"CLP-induced sepsis [1]": {"test_system": "CLP-induced sepsis", "test": "Survival in polymicrobial CLP-induced sepsis (Kaplan-Meier)", "settings": "96 hours after treatment; treatment 3 hours after CLP; MenSCs 7.5×10^5 cells/mice intra-peritoneal, Enrofloxacin 5 mg/kg", "procedure": "(§1) In vivo studies were performed at the Universidad de los Andes-Cells for Cells Animal Facility (Santiago, Chile) in accordance with the institutional guidelines for the care and use of laboratory animals in research, revised and approved by the Institutional Ethical Committee for animal experimentation. C57BL6/j mice (8 to 12 weeks old; Jackson Laboratories, Bar Harbor, Me., USA) received ad libitum access to food and water during the whole experimental procedure. CLP-induced sepsis was performed as described previously (Rittirsch D et al., Immunodesign of experimental sepsis by cecal ligation and puncture. Nat Protoc. 2009) with some modifications. Briefly, mice were anesthetized with inhaled Sevofluorane (Baxter, Guayama, Puerto Rico) by using an anesthetic vaporizer. […]\n(§2) Three hours after CLP-induced sepsis, mice were randomized and distributed into different experimental groups to receive single injections of saline (vehicle) (n=16), antibiotics (AB) (n=22), MenSCs (n=21), MenSCs+AB (n=22), MenSC CM (n=16), or MenSC CM+AB (n=22). […] For Kaplan-Meier survival curves, animals were assessed after CLP-induced sepsis every 12 hours for 4 days. […]\nData are expressed as mean±standard error. […]"}, "CLP-induced sepsis [2]": {"test_system": "CLP-induced sepsis", "test": "Blood biochemical analysis in CLP mice", "settings": "serum 24 hours post-surgery; sham 47.67±3.18, saline 90±21.47", "procedure": "as §1, with “modifications.” for “modifications. Briefly, mice were anesthetized with inhaled Sevofluorane (Baxter, Guayama, Puerto Rico) by using an anesthetic vaporizer.”\nas §2\nPlasma levels of blood urea nitrogen (BUN), bilirubin, alanine aminotransferase (ALT), aspartate aminotransferase (AST), alkaline phosphatase (ALP), albumin, amylase, and glucose were evaluated by using the Piccolo Xpress™ Chemistry Analyzer (Abaxis, Union City, Calif., USA) in accordance with the instructions of the manufacturer. […]"}, "CLP-induced sepsis [3]": {"test_system": "CLP-induced sepsis", "test": "Cytokine multiplex array evaluation in CLP mice", "settings": "40 hours post-CLP, P≤0.05", "procedure": "as §1\nThe levels of inflammatory cytokines-monocyte chemoattractant protein-1 (MCP-1), TNF-α, IL-6, and […]—in CLP mice serum samples were determined by using a commercial BD™ Cytometric Bead Array Mouse Inflammation Kit (BD Biosciences Pharmingen, San Diego, Calif., USA) in accordance with the instructions of the manufacturer. Analysis was carried out by flow cytometry, and the concentration (in picograms per milliliter) was determined by using FCAP Array software (BD Biosciences). The parameters were determined 24 and 40 hours after CLP surgery."}, "CLP-induced sepsis [4]": {"test_system": "CLP-induced sepsis", "test": "Bacterial numbers in blood, peritoneal cavity and spleen in CLP-induced sepsis", "settings": "24 hours post-CLP, in comparison with saline group, P≤0.05", "procedure": "as §1, with “vaporizer. After a 1-cm incision was performed, the cecum was exposed and ligated in the middle portion with 5-0 dafilon suture (Braun, Rubi, Spain), punctured once with an 18-gauge needle (in order to induce high-grade sepsis), and returned to the peritoneal cavity. The abdominal incision was sutured with catgut 5-0 (Braun, Bogota, Colombia), and the skin was closed with Histoacryl (Braun).” for “vaporizer.”\nTotal blood, peritoneal fluid, and homogenized spleen in sterile saline were plated in a 10-fold dilution on blood agar plates and incubated at 37° C. overnight, and the number of CFUs was determined."}}}
{"molecule": "CCN1CCN(c2cc3c(cc2F)c(=O)c(C(=O)O)cn3C2CC2)CC1", "note": "[AB, Enrofloxacin]", "values": [{"measurement": "survival rate", "setting": "CLP-induced sepsis [1]", "result": 73, "unit": "%"}, {"measurement": "alkaline phosphatase (ALP) concentration", "setting": "CLP-induced sepsis [2]", "result": "74.25±12.03", "unit": "U/l"}, {"measurement": "IL-6 serum levels", "setting": "CLP-induced sepsis [3]; in comparison with saline group", "result": "decreased"}, {"measurement": "levels of IL-10", "setting": "CLP-induced sepsis [3]; in comparison with untreated mice", "result": "reduction"}, {"measurement": "CFU counts in peritoneal lavage", "setting": "CLP-induced sepsis [4]", "result": "decreased"}]}
